Data from paper PMC9587021, “Construction of a bioluminescence-based assay for bitter taste receptors (TAS2Rs)” (Scientific Reports, 2022).
Read-outs that look alike come from different tables or passages of the source.

How the values were obtained:
Test in all cases: cell-based
TAS2R46 [1] = target: T1, TAS2R46 (Homo sapiens, UniProt P59540); set-up: species or system 293AD; bioluminescence intracellular calcium release assay, mt-clytin II with coelenterazine, Gα16-gust44 co-expressed
T1 sequence (P59540 1-309): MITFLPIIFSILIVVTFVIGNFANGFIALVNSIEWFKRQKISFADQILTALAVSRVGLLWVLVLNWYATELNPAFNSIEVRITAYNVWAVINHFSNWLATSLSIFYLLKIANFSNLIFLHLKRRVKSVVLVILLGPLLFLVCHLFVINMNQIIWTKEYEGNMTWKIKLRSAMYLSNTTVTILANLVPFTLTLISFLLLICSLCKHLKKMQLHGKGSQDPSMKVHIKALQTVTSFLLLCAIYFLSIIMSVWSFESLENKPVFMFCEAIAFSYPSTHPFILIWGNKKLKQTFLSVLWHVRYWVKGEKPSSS
Procedure: (§1) The bioluminescence-based assay was used to characterize the functional properties of various human TAS2Rs. For each TAS2R, one or more of its cognate agonists were tested against either the AD-293 or 293AD cell line, or both. Both cell lines were used because of their stronger adherent properties, which facilitate media changes on the day of the FLIPR assay. However, because both cell lines are generated differently, some disparities in gene expression capacities due to a myriad of factors could be reasonably expected. Consequently, some TAS2Rs may be well expressed in one cell line but not the other, and the ability of each cell line to express a particular TAS2R needs to be empirically evaluated. […] However, deviations between our experimental and published potency values for some ligands (i.e. TAS2R4: stevioside; TAS2R7: Mg^2+, Mn^2+, Zn^2+) were observed, which could be attributed to the use of a different assay format, readout and processing parameters, use of different cell lines with resultant potential differences in TAS2R expression levels, and quality and methodological differences in ligand preparations. […] A strength of the bioluminescence-based TAS2R assay is its capacity to generate greater assay spans than that of fluorescence-based assays, which could be largely attributed to the utilization of mt-clytin II as the calcium reporter. […]

TAS2R46 [2] = target: T1, TAS2R46; set-up: species or system AD-293; bioluminescence intracellular calcium release assay, mt-clytin II with coelenterazine, Gα16-gust44 co-expressed
Procedure: as §1

TAS2R39 = target: T2, TAS2R39 (Homo sapiens, UniProt P59534); set-up: bioluminescence intracellular calcium release assay, mt-clytin II with coelenterazine, Gα16-gust44 co-expressed
T2 sequence (P59534 1-338): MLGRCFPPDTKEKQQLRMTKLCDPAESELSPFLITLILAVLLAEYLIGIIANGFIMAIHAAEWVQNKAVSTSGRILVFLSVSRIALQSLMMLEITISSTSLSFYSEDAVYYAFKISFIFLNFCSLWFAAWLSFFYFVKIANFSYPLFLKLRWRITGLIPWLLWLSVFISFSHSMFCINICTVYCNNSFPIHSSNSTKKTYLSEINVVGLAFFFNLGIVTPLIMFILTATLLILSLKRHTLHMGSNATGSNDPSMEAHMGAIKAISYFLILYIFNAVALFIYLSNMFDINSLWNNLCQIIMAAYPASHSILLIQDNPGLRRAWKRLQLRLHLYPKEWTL
Procedure: (§2) The bioluminescence-based assay was used to characterize the functional properties of various human TAS2Rs. For each TAS2R, one or more of its cognate agonists were tested against either the AD-293 or 293AD cell line, or both. Both cell lines were used because of their stronger adherent properties, which facilitate media changes on the day of the FLIPR assay. However, because both cell lines are generated differently, some disparities in gene expression capacities due to a myriad of factors could be reasonably expected. Consequently, some TAS2Rs may be well expressed in one cell line but not the other, and the ability of each cell line to express a particular TAS2R needs to be empirically evaluated. […] However, deviations between our experimental and published potency values for some ligands (i.e. TAS2R4: stevioside; TAS2R7: Mg^2+, Mn^2+, Zn^2+) were observed, which could be attributed to the use of a different assay format, readout and processing parameters, use of different cell lines with resultant potential differences in TAS2R expression levels, and quality and methodological differences in ligand preparations. Because potency values could be obtained that were consistent with the literature, or close to the reported minimal effective stimulatory concentration upon further testing of other TAS2R4/7 agonists, the deviation in EC50 values could be largely attributed to qualitative differences in the ligands (Supplementary Fig. S3). Calcium responses induced by the tested cognate agonists reflected specific TAS2R stimulation. […] Poor localization of TAS2Rs to the cell surface in heterologous systems was associated with diminished receptor signaling output and functionality. One of the more commonly used strategies to enhance the density of TAS2Rs at the cell surface involves fusing an N-terminal signal sequence of either the SST3, or Rho receptor to the TAS2R[24]. We adopted this approach, specifically co-expressing SST3-TAS2R with Gα16-gust44 chimera and mt-clytin II, to develop and validate a bioluminescence-based TAS2R intracellular calcium release assay. A strength of the bioluminescence-based TAS2R assay is its capacity to generate greater assay spans than that of fluorescence-based assays, which could be largely attributed to the utilization of mt-clytin II as the calcium reporter. Calcium-binding photoproteins in general are useful reporters for studying calcium-mediated signaling processes. […] Its fast calcium binding and dissociation kinetics render it a suitable indicator to report on swift, transient changes in calcium ion concentrations and study rapid receptor-ligand interactions. Mitochondrial targeting of clytin II was crucial to generating higher luminescence intensity than that of cytosol-localized clytin II, as inositol 1,4,5-triphosphate (IP3)-induced calcium release from the ER subsequent to ligand activation is thought to result in the formation of ER-proximal, calcium-rich microdomains that enabled the closely apposed mitochondria to sense a higher initial rise in calcium concentration than would be experienced by the bulk cytosol.

TAS2R5 = target: T3, TAS2R5 (Homo sapiens, UniProt Q9NYW4); set-up: bioluminescence intracellular calcium release assay, mt-clytin II with coelenterazine, Gα16-gust44 co-expressed; conditions: 293AD cells
T3 sequence (Q9NYW4 1-299): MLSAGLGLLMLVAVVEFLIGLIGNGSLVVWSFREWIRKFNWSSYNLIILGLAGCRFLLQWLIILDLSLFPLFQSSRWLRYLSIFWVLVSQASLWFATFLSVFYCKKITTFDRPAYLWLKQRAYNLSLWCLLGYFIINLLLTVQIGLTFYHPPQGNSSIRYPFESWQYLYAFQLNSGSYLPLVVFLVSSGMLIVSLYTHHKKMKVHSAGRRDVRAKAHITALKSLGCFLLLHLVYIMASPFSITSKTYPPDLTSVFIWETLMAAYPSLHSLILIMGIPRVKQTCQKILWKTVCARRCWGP
Procedure: as §2

What does the source list for `O=C1C[C@@H]2OCC=C3CN4CC[C@]56c7ccccc7N1[C@H]5[C@H]2[C@H]3C[C@H]46` [Strychnine]?
EC50 (TAS2R46 [1]): 0.309 ± 0.073 µM; EC50 (TAS2R46 [2]): 1.2 µM

What does the source list for `O=C(O[C@@H]1Cc2c(O)cc(O)cc2O[C@@H]1c1cc(O)c(O)c(O)c1)c1cc(O)c(O)c(O)c1` [Epigallocatechin gallate]?
EC50 (TAS2R39; 293AD cells): 141 ± 44 µM; EC50 (TAS2R39; AD-293 cells): 362 ± 81 µM; EC50 (TAS2R5): 47 ± 11 µM
